Test results: patent publication US9771353B2, “Kinase inhibitors based upon N-alkyl pyrazoles” (RESPIVERT LIMITED, priority 2013, dated 2017)

What was measured:
PBMCs [1] = assay: IL-2 and IFN gamma release in CD3/CD28 stimulated PBMC cells, assay (c); format: cell-based; details: Homo sapiens, IFNγ, read-out: IC50 Values for Inhibition of Cytokine Release, PBMCs IFNγ
Experimental: PBMCs from healthy subjects are separated from whole blood using a density gradient (Lymphoprep, Axis-Shield Healthcare). Cells are added to a 96 well plate pre-coated with a mixture of CD3/CD28 monoclonal antibodies (0.3 μg/mL eBioscience and 3 μg/mL BD Pharmingen respectively). Compound at the desired concentration is then added to the wells and the plate left for 3 days under normal tissue culture conditions. Supernatants are harvested and IL-2 and IFN gamma release determined by Sandwich ELISA (Duo-set, R&D System). The IC50 is determined from the dose response curve.

Syk = Syk (Homo sapiens (Human), UniProt P43405); assay: Syk enzyme inhibition (FRET, Z-LYTE); format: biochemical
Experimental: (§1) The enzyme inhibitory activities of compounds disclosed herein are determined by FRET using synthetic peptides labelled with both donor and acceptor fluorophores (Z-LYTE, Invitrogen Ltd., Paisley, UK).
(§2) The inhibitory activities of compounds of the invention against c-Src and Syk enzymes (Invitrogen), are evaluated in a similar fashion to that described hereinabove. The relevant enzyme (3000 ng/mL or 2000 ng/mL respectively, 2.5 μL) is incubated with the test compound (either 4 μg/mL, 0.4 μg/mL, 0.04 μg/mL, or 0.004 μg/mL, 2.5 μL each) for 2 hr at RT. The FRET peptides (8 μM, 2.5 μL), and appropriate ATP solutions (2.5 μL, 800 μM for c-Src, and 60 μM ATP for Syk) are then added to the enzymes/compound mixtures and incubated for 1 hr. Development reagent (protease, 5 μL) is added for 1 hr prior to detection in a fluorescence microplate reader (Varioskan® Flash, ThermoFisher Scientific).
(§3) In all cases, the site-specific protease cleaves non-phosphorylated peptide only and eliminates the FRET signal. Phosphorylation levels of each reaction are calculated using the ratio of coumarin emission (donor) over fluorescein emission (acceptor), for which high ratios indicate high phosphorylation and low ratios indicate low phosphorylation levels.

d-U937 cells = assay: Accumulation of β catenin in d-U937 cells, assay (m); format: cell-based, human
Experimental: U937 cells, a human monocytic cell line, are differentiated into macrophage-type cells by incubation with PMA; (100 ng/mL) for between 48 to 72 hr. The cells are then incubated with either final concentrations of test compound or vehicle for 18 hr. The induction of β-catenin by the test compounds is stopped by replacing the media with 4% formaldehyde solution. Endogenous peroxide activity is neutralised by incubating with quenching buffer (100 μL, 0.1% sodium azide, 1% H2O2 in PBS with 0.05% Tween-20) for 20 min. The cells are washed with washing buffer (200 μL; PBS containing 0.05% Tween-20) and incubated with blocking solution (200 μL; 5% milk in PBS) for 1 hr, re-washed with washing buffer (200 μL) and then incubated overnight with anti-β-catenin antibody solution (50 μL) in 1% BSA/PBS (BD, Oxford, UK).
After washing with washing buffer (3×200 μL; PBS containing 0.05% Tween-20), cells are incubated with an HRP-conjugated secondary antibody solution (100 μL) in 1% BSA/PBS (Dako, Cambridge, UK) and the resultant signal is determined colourimetrically (OD: 450 nm with a reference wavelength of 655 nm) using TMB substrate (50 μL; R&D Systems, Abingdon, UK). This reaction is stopped by addition of 1N H2SO4 solution (50 μL). Cells are then washed with washing buffer and 2% crystal violet solution (50 μL) is applied for 30 min. After washing with washing buffer (3×200 μL), 1% SDS (100 μL) is added to each well and the plates are shaken lightly for 1 hr prior to measuring the absorbance at 595 nm (Varioskan® Flash, Thermo-Fisher Scientific).
The measured OD450-655 readings are corrected for cell number by dividing the OD450-655 by the OD595 readings. The percentage induction for each well is calculated relative to vehicle, and the ratio of induction normalised in comparison with the induction produced by a standard control comprising of N-(4-(4-(3-(3-tert-butyl-1-p-tolyl-1H-pyrazol-5-yl)ureido)naphthalen-1-yloxy)pyridin-2-yl)-2-methoxyacetamide (1 μg/mL) which is defined as 100%.

GSK3α = GSK3α (Homo sapiens (Human), UniProt P49840); assay: GSK 3α enzyme inhibition (FRET, Z-LYTE), Method 2; format: biochemical
GSK3α, sequence (P49840 whole entry): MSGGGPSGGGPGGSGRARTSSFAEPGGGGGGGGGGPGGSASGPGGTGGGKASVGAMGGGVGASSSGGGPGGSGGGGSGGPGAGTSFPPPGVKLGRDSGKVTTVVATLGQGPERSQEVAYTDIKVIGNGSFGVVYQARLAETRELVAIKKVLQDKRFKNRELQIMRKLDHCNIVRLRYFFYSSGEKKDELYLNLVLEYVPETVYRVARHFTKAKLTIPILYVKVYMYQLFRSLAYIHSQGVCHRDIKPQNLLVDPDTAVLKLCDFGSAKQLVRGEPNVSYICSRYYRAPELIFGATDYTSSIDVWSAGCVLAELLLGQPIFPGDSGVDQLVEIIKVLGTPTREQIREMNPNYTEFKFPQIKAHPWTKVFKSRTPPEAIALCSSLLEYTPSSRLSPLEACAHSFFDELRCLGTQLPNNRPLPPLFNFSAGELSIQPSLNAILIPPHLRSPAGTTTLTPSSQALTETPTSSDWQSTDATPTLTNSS
Experimental: as §1
The inhibitory activities of compounds of the invention against the GSK 3α enzyme isoform (Invitrogen), are evaluated by determining the level of activation/phosphorylation of the target peptide. The GSK3-α protein (500 ng/mL, 2.5 μL) is mixed with the test compound (2.5 μL at either 4 μg/mL, 0.4 μg/mL, 0.04 μg/mL, or 0.004 μg/mL) for 2 hr at RT. The FRET peptide (8 μM, 2.5 μL), which is a phosphorylation target for GSK3α, and ATP (40 μM, 2.5 μL) are then added to the enzyme/compound mixture and the resulting mixture incubated for 1 hr. Development reagent (protease, 5 μL) is added for 1 hr prior to detection in a fluorescence microplate reader (Varioskan® Flash, ThermoFisher Scientific).
as §3
This method follows the same steps as Method 1 above, but utilises a shorter period of mixing of the test compound (105 minutes instead of 2 hours) with the GSK3-α protein.

c-Src = c-Src (Homo sapiens (Human), UniProt P12931); assay: c-Src enzyme inhibition (FRET, Z-LYTE); format: biochemical
c-Src, sequence (P12931 whole entry, looked up): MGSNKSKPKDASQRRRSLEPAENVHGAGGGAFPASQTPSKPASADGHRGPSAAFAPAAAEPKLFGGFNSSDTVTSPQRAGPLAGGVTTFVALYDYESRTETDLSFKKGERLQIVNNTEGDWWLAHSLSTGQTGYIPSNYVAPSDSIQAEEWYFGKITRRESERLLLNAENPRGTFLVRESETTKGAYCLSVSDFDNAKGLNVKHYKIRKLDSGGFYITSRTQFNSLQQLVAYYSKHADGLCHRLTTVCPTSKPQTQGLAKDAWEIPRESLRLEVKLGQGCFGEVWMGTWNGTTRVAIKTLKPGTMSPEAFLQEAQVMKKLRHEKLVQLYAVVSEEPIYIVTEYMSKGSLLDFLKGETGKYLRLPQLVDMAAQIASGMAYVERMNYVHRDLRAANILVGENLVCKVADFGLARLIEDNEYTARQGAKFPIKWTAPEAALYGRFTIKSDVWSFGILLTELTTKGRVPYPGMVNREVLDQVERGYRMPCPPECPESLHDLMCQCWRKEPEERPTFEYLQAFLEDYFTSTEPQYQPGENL
Experimental: as §1
as §2, with “The” for “The inhibitory activities of compounds of the invention against c-Src and Syk enzymes (Invitrogen), are evaluated in a similar fashion to that described hereinabove. The”
as §3

PBMCs [2] = assay: LPS-induced TNFα/IL-8 release in PBMC cells, assay (b); format: cell-based; details: Homo sapiens, LPS-stimulated PBMCs, read-out: IC50 Values for Inhibition of Cytokine Release, PBMCs IL-8
Experimental: Peripheral blood mononuclear cells (PBMCs) from healthy subjects are separated from whole blood using a density gradient (Lymphoprep, Axis-Shield Healthcare). The PBMCs are seeded in 96 well plates and treated with compounds at the desired concentration for 2 hours before addition of 1 ng/mL LPS (Escherichia Coli 0111:B4 from Sigma Aldrich) for 24 hours under normal tissue culture conditions (37° C., 5% CO2). The supernatant is harvested for determination of IL-8 and TNFα concentrations by sandwich ELISA (Duo-set, R&D systems) and read on the fluorescence microplate reader (Varioskan® Flash, ThermoFisher Scientific).

p38 MAPKα = p38 MAPKα (Homo sapiens (Human), UniProt Q16539); assay: p38 MAPKα enzyme inhibition (FRET, Z-LYTE), Method 2; format: biochemical
p38 MAPKα, sequence (Q16539 whole entry): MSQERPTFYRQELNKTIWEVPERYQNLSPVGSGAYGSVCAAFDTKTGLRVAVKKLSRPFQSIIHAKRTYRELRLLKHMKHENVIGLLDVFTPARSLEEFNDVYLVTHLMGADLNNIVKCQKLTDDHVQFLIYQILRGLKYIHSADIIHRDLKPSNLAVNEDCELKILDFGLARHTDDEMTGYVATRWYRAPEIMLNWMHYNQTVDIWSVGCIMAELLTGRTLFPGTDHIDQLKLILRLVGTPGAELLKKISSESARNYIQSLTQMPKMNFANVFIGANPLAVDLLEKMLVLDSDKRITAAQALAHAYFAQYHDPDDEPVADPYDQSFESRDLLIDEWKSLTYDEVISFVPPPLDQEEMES

HT29 cells = assay: IL-1β-induced IL-8 release in HT29 cells, assay (d); format: cell-based; details: Homo sapiens, HT-29, IL-1β-stimulated HT29 cells, read-out: IC50 Values for Inhibition of Cytokine Release, HT29 cells IL-8
Experimental: HT29 cells, a human colon adenocarcinoma cell line, are plated in a 96 well plate (24 hrs) and pre-treated with compounds at the desired concentration for 2 hours before addition of 5 ng/mL of IL-1β (Abcam) for 24 hours. Supernatants are harvested for IL-8 quantification by Sandwich ELISA (Duo-set, R&D System). The IC50 is determined from the dose response curve.

[3] = 1 μg/mL test compound, normalised to reference N-(4-(4-(3-(3-tert-butyl-1-p-tolyl-1H-pyrazol-5-yl)ureido)naphthalen-1-yloxy)pyridin-2-yl)-2-methoxyacetamide
[4] = 5 μg/mL test compound, normalised to the same reference compound
[5] = 10 μg/mL test compound, normalised to the same reference compound

Row | IC50 (Syk) | IC50 (GSK3α) | IC50 (c-Src) | IC50 (p38 MAPKα) | IC50 (HT29 cells) | SMILES | IC50 (PBMCs [1]) | % β-catenin induction (d-U937 cells; [3]) | % β-catenin induction (d-U937 cells; [4]) | % β-catenin induction (d-U937 cells; [5]) | IC50 (PBMCs [2])
1 | > 1000 nM | 3070 nM | 5 nM | 20 nM | – | C#Cc1cc(Nc2nccc(Oc3ccc(NC(=O)Nc4cc(C(C)(C)C)nn4CC)c4ccccc34)n2)cc(C(=O)NCCOCCOCCOC)c1 [Example 8, 3-((4-((4-(3-(3-(tert-Butyl)-1-ethyl-1H-pyrazol-5-yl)ureido)naphthalen-1-yl)oxy)pyrimidin-2-yl)amino)-5-ethynyl-N-(2-(2-(2-methoxyethoxy)ethoxy)ethyl)benzamide] | 13.2 nM | 2.5% | 4% | 3.5% | 4.8 nM
2 | > 1000 nM | 9520 nM | 9 nM | 13 nM | > 1000 nM | C#Cc1cc(Nc2nccc(Oc3ccc(NC(=O)Nc4cc(C(C)C)nn4C)c4ccccc34)n2)cc(C(=O)NCCOCCOCCOC)c1 [Example 11, 3-Ethynyl-5-((4-((4-(3-(3-isopropyl-1-methyl-1H-pyrazol-5-yl)ureido)naphthalen-1-yl)oxy)pyrimidin-2-yl)amino)-N-(2-(2-(2-methoxyethoxy)ethoxy)ethyl)benzamide] | – | – | – | – | 26.1 nM
3 | > 1000 nM | 12400 nM | 53 nM | 66 nM | 18 nM | C#Cc1cc(Nc2cc(Oc3ccc(NC(=O)Nc4cc(C(C)(C)C)nn4C)c4ccccc34)ccn2)cc(C(=O)NCCOCCOCCOC)c1 [Example 9, 3-((4-((4-(3-(3-(tert-Butyl)-1-methyl-1H-pyrazol-5-yl)ureido)naphthalen-1-yl)oxy)pyridin-2-yl)amino)-5-ethynyl-N-(2-(2-(2-methoxyethoxy)ethoxy)ethyl)benzamide] | 33.7 nM | −2.5% | −1% | 4.5% | 3.8 nM
4 | 819 nM | 14100 nM | 8 nM | 9 nM | 270 nM | C#Cc1cc(Nc2nccc(Oc3ccc(NC(=O)Nc4cc(C(C)C)nn4C)c4ccccc34)n2)cc(C(=O)NCCN2CCOCC2)c1 [Example 10, 3-Ethynyl-5-((4-((4-(3-(3-isopropyl-1-methyl-1H-pyrazol-5-yl)ureido)naphthalen-1-yl)oxy)pyrimidin-2-yl)amino)-N-(2-morpholinoethyl)benzamide] | – | – | – | – | 15.6 nM
